Laboratory results published in patent US20220024921A1, “1,3,4-OXADIAZOLONE COMPOUND AND PHARMACEUTICAL” (NIPPON SHINYAKU CO., LTD., priority 2018, published 2022).
pIC50: −log10 of the molar value. Structures can show the parent of a compound that is named as a salt.

Experiments:
[1] = target: T1, PIM1 serine/threonine kinase (Homo sapiens, UniProt P11309); test: PIM1 serine/threonine kinase inhibitory effect; type: biochemical; settings: PIM1 serine/threonine kinase activity; ATP 40 μM; 30° C., 30 minutes
T1 construct: purchased Carna Bioscience, Inc
T1 sequence (P11309 whole entry): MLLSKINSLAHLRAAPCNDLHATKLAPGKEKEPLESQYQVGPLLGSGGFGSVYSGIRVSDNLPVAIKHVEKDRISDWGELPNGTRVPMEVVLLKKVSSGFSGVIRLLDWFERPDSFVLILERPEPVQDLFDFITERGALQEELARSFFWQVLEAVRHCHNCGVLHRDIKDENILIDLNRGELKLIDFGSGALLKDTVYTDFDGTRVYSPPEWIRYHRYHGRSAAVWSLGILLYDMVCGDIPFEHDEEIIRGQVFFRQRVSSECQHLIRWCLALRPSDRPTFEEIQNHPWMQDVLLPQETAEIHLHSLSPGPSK
Summary of the method: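 Compounds were tested in duplicate from 0.01 to 10000 nM final against PIM1 kinase (0.15 μg/ml). The reaction ran for 30 minutes at 30° C with 40 μM ATP and 0.5 μM biotin-tagged substrate at pH 7.0. Phosphorylation was read by time-resolved FRET (OD665/OD620) after 1 h; IC50 by non-linear fit.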

[2] = target: T2, PIM2 serine/threonine kinase (Homo sapiens, UniProt Q9P1W9); test: PIM2 serine/threonine kinase inhibitory effect; type: biochemical; settings: PIM2 serine/threonine kinase activity; ATP 2 μM; 30° C., 30 minutes
T2 construct: purchased Carna Bioscience, Inc
T2 sequence (Q9P1W9 whole entry): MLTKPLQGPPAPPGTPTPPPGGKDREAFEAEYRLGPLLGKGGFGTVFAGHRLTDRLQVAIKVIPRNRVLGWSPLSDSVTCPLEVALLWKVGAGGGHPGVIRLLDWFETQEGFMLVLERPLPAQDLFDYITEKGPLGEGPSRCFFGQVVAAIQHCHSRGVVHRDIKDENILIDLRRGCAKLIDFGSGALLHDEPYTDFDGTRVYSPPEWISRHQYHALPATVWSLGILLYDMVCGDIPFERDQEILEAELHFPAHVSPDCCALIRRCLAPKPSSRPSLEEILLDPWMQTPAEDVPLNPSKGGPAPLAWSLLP
Description: (§1) Each test substance was prepared to 10 mM with dimethylsulfoxide (DMSO), and further diluted with DMSO so as to have concentrations of 1000, 300, 100, 30, 10, 3, 1, 0.3, 0.1, 0.03, 0.01, and 0.001 μM. Moreover, each dilution was further diluted 33.3-fold with an assay buffer to prepare a test substance solution. The composition of the assay buffer was 50 mM HEPES (pH 7.0), 0.02% NaN3, 0.01% Bovine Serum Albumin, 0.1 mM Orthovanadate, 1 mM Dithiothreitol, and 5 mM MgCl2.
(§2) 5 μL of each test substance solution was added to 384-well plates (n=2), and then 2.5 μL of a substrate solution (substrate 3-biotin (Cisbio Bioassays SAS), final concentration in the reaction solution: 0.5 μM) and 2.5 μL of an ATP solution (in the cases of PIM1, 2, 3, the final concentrations in the reaction solutions were 40, 2, and 10 μM, respectively) were added, 5 μL of each of PIM1, 2, 3 serine/threonine kinase solutions (Carna Bioscience, Inc., the final concentrations in the reaction solutions were 0.15, 1.6, and 0.25 μg/ml, respectively) was finally added, and the mixture was reacted at 30° C. for 30 minutes. The test substance concentrations in the reaction solutions are 10000, 3000, 1000, 300, 100, 30, 10, 3, 1, 0.3, 0.1, and 0.01 nM.
(§3) Thereafter, 15 μL of each detection solution (62.5 nM Streptavidin-XL665 (Cisbio Bioassays SAS), […] STK antibody-Cryptate (Cisbio Bioassays SAS), 50 mM HEPES (pH 7.0), 0.8 M KF, 0.1% Bovine Serum Albumin, 20 mM ethylenediaminetetraacetic acid) was added to each well. After stirring, the mixture was reacted at 30° C. for 1 hour. Absorbance (OD620, OD665) at 620 and 665 nm was measured with a microplate reader (SpectraMax M5e, Molecular Devices, LLC).
(§4) Non-linear regression analysis was performed by an SAS system (SAS Institute Inc.) using the ratio (OD665/OD620) of the measured absorbance to calculate a test substance concentration (IC50) that inhibits PIM1 serine/threonine kinase activity by 50%.
(§5) For the compounds with the following Example numbers, in addition to the above PIM1 serine/threonine kinase activity (IC50), test substance concentrations (IC50) that inhibit PIM2 serine/threonine kinase activity and PIM3 serine/threonine kinase activity by 50% were calculated.

[3] = target: T3, PIM3 serine/threonine kinase (Homo sapiens, UniProt Q86V86); test: PIM3 serine/threonine kinase inhibitory effect; type: biochemical; settings: PIM3 serine/threonine kinase activity; ATP 10 μM; 30° C., 30 minutes
T3 construct: purchased Carna Bioscience, Inc
Description: as §1, §2, §3, §4, §5

[4] = target: PIM1 transgenic cells (Ba/F3) (Homo sapiens, UniProt P11309); test: Proliferation inhibitory effect on PIM1 transgenic cells; type: cell-based, mouse; settings: proliferation inhibition, 72 hours, Cell Counting Kit-8, read-out: PIM1 IC50
Chain of PIM1 transgenic cells (Ba/F3) (P11309 whole entry, stated change not applied): as the sequence (P11309 whole entry) above
Summary of the method: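 Mouse Ba/F3 pro-B cells were retrovirally transduced with human PIM1 so that their proliferation depends on PIM1. Cells were treated with compound at 1–10000 nM final for 72 h, then read by CCK-8 (OD450−OD650). Inhibition was set against DMSO (0%) and no-cell blank (100%), and IC50 was obtained by two-parameter logistic regression.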

| Compound | pIC50 [1] | pIC50 [2] | pIC50 [3] | GI50 [4] |
| --- | --- | --- | --- | --- |
| N[C@H]1CC[C@H](CNc2cc(-c3n[nH]c(=O)o3)ccc2OC(F)(F)F)CC1 [Example 66, 5-[3-({[(1r,4r)-4-aminocyclohexyl]methyl}amino)-4-(trifluoromethoxy)phenyl]-1,3,4-oxadiazol-2(3H)-one hydrochloride] | 8.33 | 7.05 | 7.74 | 190 nM |
| N[C@H]1CC[C@H](CNc2cc(-c3n[nH]c(=O)o3)ccc2Br)CC1 [Example 68, 5-[3-({[(1r,4r)-4-aminocyclohexyl]methyl}amino)-4-bromophenyl]-1,3,4-oxadiazol-2(3H)-one hydrochloride] | 8.85 | 7.74 | 8.30 | 61 nM |
| N[C@H]1CC[C@H](CNc2cc(-c3n[nH]c(=O)o3)ccc2Cl)CC1 [Example 61, 5-[3-({[(1r,4r)-4-aminocyclohexyl]methyl}amino)-4-chlorophenyl]-1,3,4-oxadiazol-2(3H)-one hydrochloride] | 9.00 | 7.72 | 8.30 | 44 nM |
| N[C@H]1CC[C@H](CNc2cc(-c3n[nH]c(=O)o3)ccc2C(F)(F)F)CC1 [Example 55, 5-[3-({[(1r,4r)-4-aminocyclohexyl]methyl}amino)-4-(trifluoromethyl)phenyl]-1,3,4-oxadiazol-2(3H)-one hydrochloride] | 9.15 | 7.85 | 8.30 | 34 nM |
| C[C@@H](Nc1cc(-c2n[nH]c(=O)o2)ccc1C(F)(F)F)C1CCNCC1 [Example 59, 5-[3-{[(1R)-1-(piperidin-4-yl)ethyl]amino}-4-(trifluoromethyl)phenyl]-1,3,4-oxadiazol-2(3H)-one hydrochloride] | 7.80 | 7.01 | 7.07 | 320 nM |
| N[C@H]1CC[C@H](CNc2cc(-c3n[nH]c(=O)o3)cc(F)c2C(F)(F)F)CC1 [Example 69, 5-[3-({[(1r,4r)-4-aminocyclohexyl]methyl}amino)-5-fluoro-4-(trifluoromethyl)phenyl]-1,3,4-oxadiazol-2(3H)-one hydrochloride] | 8.96 | 8.15 | 8.40 | 37 nM |
| N[C@H]1CC[C@H](Nc2cc(-c3n[nH]c(=O)o3)ccc2C(F)(F)F)CC1 [Example 34, 5-[3-{[(1r,4r)-4-aminocyclohexyl]amino}-4-(trifluoromethyl)phenyl]-1,3,4-oxadiazol-2(3H)-one hydrochloride] | 8.40 | 7.60 | 7.80 | 910 nM |
| CC(Nc1cc(-c2n[nH]c(=O)o2)ccc1C(F)(F)F)C1CCNCC1 (stereo not drawn) [Example 52, 5-[3-{[1-(piperidin-4-yl)ethyl]amino}-4-(trifluoromethyl)phenyl]-1,3,4-oxadiazol-2(3H)-one hydrochloride] | 8.38 | 7.72 | 7.92 | 59 nM |
| CC(Nc1cc(-c2n[nH]c(=O)o2)ccc1C(F)(F)F)[C@H]1CC[C@H](N)CC1 (stereo partly drawn) [Example 63, 5-[3-({1-[(1r,4r)-4-aminocyclohexyl]ethyl}amino)-4-(trifluoromethyl)phenyl]-1,3,4-oxadiazol-2(3H)-one hydrochloride] | 9.15 | 7.89 | 8.30 | 28 nM |
